{"source": "patent US5606038A", "about": "“Amphiphilic polyene macrolide antibiotic compounds” (Competitive Technologies, Inc., priority 1995, dated 1997)", "key": {"[1]": {"test_system": "Cryptococcus neoformans (isolate NIH C-1)", "assay": "MIC against infecting isolate of Example VI", "assay_type": "cell-based"}, "[2]": {"test_system": "Candida albicans (isolate NIH A)", "assay": "survival of mice infected with Candida albicans (Example V)", "assay_type": "in vivo, Candida albicans in ICR mice", "conditions": "i.p. once per day for ten days, Example II 30 mg/kg, Amphotericin B 1 mg/kg", "text": "Ten immunocompetent ICR mice weighing 30 g each in three groups were inoculated intravenously with 3.2×10^6 colony forming units of Candida albicans (isolate NIH A) per mouse."}}, "note": "Like-named read-outs stand apart in the source and are kept apart here.", "data": [{"smiles": "COCCOCCOCCOCCOCCOCCNC(=O)[C@H]1[C@@H]2C[C@@H](O[C@@H]3O[C@H](C)[C@@H](O)[C@H](N)[C@@H]3O)/C=C/C=C/C=C/C=C/C=C/C=C/C=C/[C@H](C)[C@@H](O)[C@@H](C)[C@H](C)OC(=O)C[C@H](O)C[C@H](O)CC[C@@H](O)[C@H](O)C[C@H](O)C[C@](O)(C[C@@H]1O)O2", "note": "[Example II]", "values": [{"measurement": "MIC", "setting": "[1]", "value": "≤ 6.06", "unit": "µg/mL"}, {"measurement": "MIC", "setting": "[1]; 48 h", "value": 1.51, "unit": "µg/mL"}, {"measurement": "MIC", "setting": "[1]; 72 h", "value": 3.03, "unit": "µg/mL"}, {"measurement": "percent survival", "setting": "[2]; day 2 post-infection", "value": 100, "unit": "%"}, {"measurement": "percent survival", "setting": "[2]; day 3 post-infection", "value": 100, "unit": "%"}, {"measurement": "percent survival", "setting": "[2]; day 4 post-infection", "value": 100, "unit": "%"}, {"measurement": "percent survival", "setting": "[2]; day 5 post-infection", "value": 100, "unit": "%"}, {"measurement": "percent survival", "setting": "[2]; day 6 post-infection", "value": 100, "unit": "%"}, {"measurement": "percent survival", "setting": "[2]; day 7 post-infection", "value": 90, "unit": "%"}, {"measurement": "percent survival", "setting": "[2]; day 30 post-infection", "value": 90, "unit": "%"}]}]}
